Experimental data taken from patent publication US5290576A, “Tert-butyloxycarbonyl-L-tyrosyl-peptidoglycan monomer and ^125 I-labeled derivative thereof, their preparation and use” (Pliva Farmaceutska, priority 1990, dated 1994).

Key:
[1] = system: antibody-forming cells (plaque-forming cells, PFC) in the spleen of mice immunized with sheep erythrocytes (SRBC); experiment: Immunostimulating activity: plaque-forming cells in spleen of mice immunized with sheep erythrocytes (Jerne's technique); assay type: in vivo; settings: for PFC, % (of Hanks' control): 200 μg i.v. on day +1, PFC on day +4, Hanks' control = 100; for PFC, mean (X) / PFC, range of individual values: 200 μg i.v. on day +1 after SRBC i.p., PFC in spleen on day +4
Method: The immunostimulating activity of Boc-Tyr-PGM was tested in mice immunized with sheep erythrocytes (sheep red blood cells, SRBC).
Mice (CBA or AKR), five per group, were immunized i.p. with sheep erythrocytes (1×10^8 SRBC) in Hanks' solution. One day later (on day +1), the control group of mice receiving i.v. Hanks' solution, whereas the test group of mice was given i.v. 200 μg of Boc-Tyr-PGM in Hanks' solution. As positive control, a group of mice was used, to which 200 μg of peptidoglycan monomer (PGM) in Hanks' solution was administered i.v. Four days later (on day +4), the number of antibody-forming cells (plaque-forming cells, PFC) was determined in the spleen by Jerne's technique (Jerne, N. K., Nordin, A. A., and Henry, C. (1963), The agar plaque tecnique for recognizing antibody producing cells, in: "Cell Bound Antibodies", p. 109, Wistar Institute Press, Philadelphia).

[2] = system: melanoma B-16; experiment: Antitumor (antimetastatic) activity: lung metastases in mice inoculated with melanoma B-16; assay type: in vivo; settings: for Inhibition % / Metastases %: counted on day 23; for Metastases %: Hanks' control = 100; for Number of metastases, mean (X): C57BL/6 mice, lung metastases counted on day 23
Method: The antitumor activity of Boc-Tyr-PGM was investigated in mice, inoculated with melanoma B-16.
Mice (C5 7 BL/6, male, 4 months old), five per group, were given i.v. each 1×10^5 cells of B-16 melanoma on day 0.
One group of mice was chosen as control and was not treated further in any manner. The mice in experimental groups were given i.v. each 1 mg of Boc-Tyr-PGM, according to the following protocol:
3rd group--days 3 and 7 (total 2 mg of Boc-Tyr-PGM)
Three mice groups, which received PGM (PLIVA) i.v. according to the same protocol, were chosen as the positive control.
Macroscopically detectable lung metastases were counted on day 23.

[3] = 1 mg i.v. on days 3 and 7 (total 2 mg)

Substance	PFC, % (of Hanks' control) ([1]; AKR mice) [%]	PFC, mean (X) ([1]; AKR mice)	PFC, range of individual values ([1]; AKR mice)	PFC, % (of Hanks' control) ([1]; CBA mice) [%]	PFC, mean (X) ([1]; CBA mice)	PFC, range of individual values ([1]; CBA mice)	Inhibition % ([2]; 1 mg i.v. on day 3) [%]	Metastases % ([2]; 1 mg i.v. on day 3) [%]	Inhibition % ([2]; 1 mg i.v. on day 7) [%]	Metastases % ([2]; 1 mg i.v. on day 7) [%]	Inhibition % [2, 3] [%]	Metastases % [2, 3] [%]	Number of metastases, mean (X) ([2]; 1 mg i.v. on day 3)	Number of metastases, mean (X) ([2]; 1 mg i.v. on day 7)	Number of metastases, mean (X) [2, 3]	increased number of PFC in comparison with the control group ([1]; both mice strains (CBA, AKR), 200 μg i.v.)	effectiveness compared with the positive control peptidoglycan monomer ([1]; both tests (CBA, AKR))	inhibition rate of metastases, all treated mice groups ([2]; all treatment protocols (day 3, day 7, days 3 and 7))	difference in inhibition rate between treatment periods and total doses ([2]; day 3 or 7, 1 mg on day 3 or total 2 mg on days 3 and 7)	antimetastatic effect compared with PGM (PLIVA) positive control ([2]; mouse, in vivo)
GlcNAc-β-(1→4)MurNAc-L-Ala-D-iGln-[(L)-meso-A2 pm-(D)-amide-(L)-D-Ala-D-Ala] [PGM, reference compound]	130	48,668	27,200-61,070	166	313,413	198,800-449,866	50.0	50.0	66.5	43.5	67.3	42.7	6.2 ± 4.4	5.4 ± 1.7	5.3 ± 1.7					
tert-Butyloxycarbonyl-L-tyrosyl-peptidoglycan monomer [Boc-Tyr-PGM]	150	55,974	31,730-68,670	157	295,866	257,600-304,266	38.7	61.3	41.9	58.1	43.6	56.4	7.6 ± 1.9	7.2 ± 4.0	7.0 ± 2.7	approximately 50%	comparable with the effect of the positive control	37.8%-43.6	No significant difference in the inhibition rate	comparable to the effect of PGM (PLIVA)
